This passage reports Ki results from BindingDB's records for doi:10.1016/s0024-3205(97)00885-0 (Eli Lilly, 1997).

Some targets named below: D(1A) dopamine receptor (Rattus norvegicus, UniProt P18901); D(2) dopamine receptor (Rattus norvegicus, UniProt P61169); Histamine H1 receptor (Rattus norvegicus, UniProt P31390).
The target of assay [1] is T1, Muscarinic acetylcholine receptor M2 (Rattus norvegicus, UniProt P10980).
T1 sequence (P10980 whole entry): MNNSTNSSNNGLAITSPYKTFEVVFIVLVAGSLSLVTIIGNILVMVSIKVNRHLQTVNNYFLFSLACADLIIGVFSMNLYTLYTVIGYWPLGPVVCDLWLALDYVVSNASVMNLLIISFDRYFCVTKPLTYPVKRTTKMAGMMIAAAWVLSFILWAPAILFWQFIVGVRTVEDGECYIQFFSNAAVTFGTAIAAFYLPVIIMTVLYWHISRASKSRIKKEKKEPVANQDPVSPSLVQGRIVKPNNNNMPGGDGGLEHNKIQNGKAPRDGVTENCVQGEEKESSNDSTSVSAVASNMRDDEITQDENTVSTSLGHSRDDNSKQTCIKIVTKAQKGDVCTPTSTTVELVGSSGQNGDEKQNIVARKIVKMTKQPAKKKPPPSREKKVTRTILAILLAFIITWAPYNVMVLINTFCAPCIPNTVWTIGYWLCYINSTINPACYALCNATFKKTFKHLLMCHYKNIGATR

In assay [2] the target is T2, 5-hydroxytryptamine receptor 2C (Homo sapiens, UniProt P28335).
T2 sequence (P28335 whole entry): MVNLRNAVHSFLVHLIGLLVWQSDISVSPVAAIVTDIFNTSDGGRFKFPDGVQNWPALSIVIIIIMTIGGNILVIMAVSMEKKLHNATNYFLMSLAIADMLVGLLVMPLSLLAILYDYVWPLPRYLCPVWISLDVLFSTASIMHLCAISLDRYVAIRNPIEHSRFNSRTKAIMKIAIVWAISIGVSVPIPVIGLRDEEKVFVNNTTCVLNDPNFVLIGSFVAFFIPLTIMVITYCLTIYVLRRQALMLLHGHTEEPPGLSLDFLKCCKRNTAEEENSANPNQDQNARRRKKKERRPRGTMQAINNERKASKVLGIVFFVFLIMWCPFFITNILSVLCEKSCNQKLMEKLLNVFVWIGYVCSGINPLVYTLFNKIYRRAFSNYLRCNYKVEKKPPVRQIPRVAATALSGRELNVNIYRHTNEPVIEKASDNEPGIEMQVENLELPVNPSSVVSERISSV

For assay [3], the target named is T3, Alpha-2C adrenergic receptor (Rattus norvegicus, UniProt P22086).
T3 sequence (P22086 whole entry): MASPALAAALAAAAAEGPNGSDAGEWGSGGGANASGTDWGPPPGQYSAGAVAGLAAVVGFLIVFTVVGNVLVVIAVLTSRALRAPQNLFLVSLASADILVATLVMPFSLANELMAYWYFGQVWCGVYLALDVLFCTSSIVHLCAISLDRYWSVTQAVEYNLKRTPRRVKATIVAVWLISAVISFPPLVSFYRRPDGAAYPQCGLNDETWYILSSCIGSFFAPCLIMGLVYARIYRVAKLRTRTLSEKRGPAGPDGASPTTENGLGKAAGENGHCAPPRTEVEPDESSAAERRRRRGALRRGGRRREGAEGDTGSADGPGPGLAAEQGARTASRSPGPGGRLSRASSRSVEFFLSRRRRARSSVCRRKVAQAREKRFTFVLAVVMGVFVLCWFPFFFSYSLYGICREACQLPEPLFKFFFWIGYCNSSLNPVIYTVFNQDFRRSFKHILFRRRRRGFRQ

Assay [4] concerns the target Beta-2 adrenergic receptor (Rattus norvegicus, UniProt P10608).
For assay [5], the target named is 5-hydroxytryptamine receptor 1D (Homo sapiens, UniProt P28221).
The target of assay [6] is 5-hydroxytryptamine receptor 2A (Homo sapiens, UniProt P28223).
For assay [7], the target named is Gamma-aminobutyric acid receptor subunit alpha-1 (Rattus norvegicus, UniProt P62813).
Assay [8] has as its target 5-hydroxytryptamine receptor 7 (Homo sapiens, UniProt P34969).
For assay [9], the target named is T4, 5-hydroxytryptamine receptor 1F (Homo sapiens, UniProt P30939).
T4 sequence (P30939 whole entry): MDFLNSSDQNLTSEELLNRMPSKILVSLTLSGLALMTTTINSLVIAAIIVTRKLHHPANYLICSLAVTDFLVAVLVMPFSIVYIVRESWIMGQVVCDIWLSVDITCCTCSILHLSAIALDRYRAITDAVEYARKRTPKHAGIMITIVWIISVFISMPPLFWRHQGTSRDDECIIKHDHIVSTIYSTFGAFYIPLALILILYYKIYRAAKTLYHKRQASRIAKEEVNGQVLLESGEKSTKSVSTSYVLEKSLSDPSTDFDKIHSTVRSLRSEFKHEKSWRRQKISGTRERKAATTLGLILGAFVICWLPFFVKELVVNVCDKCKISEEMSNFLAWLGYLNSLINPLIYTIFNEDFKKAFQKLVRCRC

Assay [10] addresses 5-hydroxytryptamine receptor 2B (Homo sapiens, UniProt P41595).
The target of assay [11] is T5, Alpha-1A adrenergic receptor (Rattus norvegicus, UniProt P43140).
T5 sequence (P43140 whole entry): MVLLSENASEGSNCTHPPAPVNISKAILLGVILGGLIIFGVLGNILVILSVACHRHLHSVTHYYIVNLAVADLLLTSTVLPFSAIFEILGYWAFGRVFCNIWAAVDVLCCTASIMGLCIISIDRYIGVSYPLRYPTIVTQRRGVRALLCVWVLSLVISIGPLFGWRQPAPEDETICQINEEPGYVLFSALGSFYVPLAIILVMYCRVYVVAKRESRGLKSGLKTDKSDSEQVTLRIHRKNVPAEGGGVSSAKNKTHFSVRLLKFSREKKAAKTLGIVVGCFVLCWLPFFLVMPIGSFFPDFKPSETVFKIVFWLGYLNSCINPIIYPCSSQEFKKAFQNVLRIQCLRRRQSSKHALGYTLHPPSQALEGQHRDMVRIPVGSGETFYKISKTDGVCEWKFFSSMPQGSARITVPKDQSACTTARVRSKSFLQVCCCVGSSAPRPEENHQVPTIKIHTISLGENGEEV

Sequence of 5-hydroxytryptamine receptor 2B (P41595 whole entry): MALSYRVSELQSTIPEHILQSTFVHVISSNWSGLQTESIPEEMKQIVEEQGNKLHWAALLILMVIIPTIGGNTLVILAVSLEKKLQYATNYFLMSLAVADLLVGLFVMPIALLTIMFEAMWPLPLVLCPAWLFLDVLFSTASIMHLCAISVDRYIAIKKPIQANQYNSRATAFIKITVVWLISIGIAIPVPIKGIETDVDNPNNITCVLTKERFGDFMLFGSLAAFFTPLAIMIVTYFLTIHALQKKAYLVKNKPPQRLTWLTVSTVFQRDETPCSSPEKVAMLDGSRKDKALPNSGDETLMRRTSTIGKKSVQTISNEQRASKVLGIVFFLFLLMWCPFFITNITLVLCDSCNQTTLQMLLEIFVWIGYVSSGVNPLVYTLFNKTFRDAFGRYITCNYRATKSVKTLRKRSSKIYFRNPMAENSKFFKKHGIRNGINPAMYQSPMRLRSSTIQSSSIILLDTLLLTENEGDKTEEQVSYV
Sequence of D(2) dopamine receptor (P61169 whole entry): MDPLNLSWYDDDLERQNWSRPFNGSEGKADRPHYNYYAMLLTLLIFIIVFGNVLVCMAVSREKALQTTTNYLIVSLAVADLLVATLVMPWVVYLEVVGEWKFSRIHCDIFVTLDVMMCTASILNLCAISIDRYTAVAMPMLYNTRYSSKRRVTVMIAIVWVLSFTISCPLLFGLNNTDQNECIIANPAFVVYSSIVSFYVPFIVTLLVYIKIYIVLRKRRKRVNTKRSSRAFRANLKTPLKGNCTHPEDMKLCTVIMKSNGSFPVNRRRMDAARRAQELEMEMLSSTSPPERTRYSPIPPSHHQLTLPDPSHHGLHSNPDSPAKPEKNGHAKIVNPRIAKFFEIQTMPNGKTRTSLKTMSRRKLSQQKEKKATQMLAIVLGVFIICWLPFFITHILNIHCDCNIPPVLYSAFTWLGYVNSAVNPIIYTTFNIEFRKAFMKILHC
Sequence of Beta-2 adrenergic receptor (P10608 whole entry): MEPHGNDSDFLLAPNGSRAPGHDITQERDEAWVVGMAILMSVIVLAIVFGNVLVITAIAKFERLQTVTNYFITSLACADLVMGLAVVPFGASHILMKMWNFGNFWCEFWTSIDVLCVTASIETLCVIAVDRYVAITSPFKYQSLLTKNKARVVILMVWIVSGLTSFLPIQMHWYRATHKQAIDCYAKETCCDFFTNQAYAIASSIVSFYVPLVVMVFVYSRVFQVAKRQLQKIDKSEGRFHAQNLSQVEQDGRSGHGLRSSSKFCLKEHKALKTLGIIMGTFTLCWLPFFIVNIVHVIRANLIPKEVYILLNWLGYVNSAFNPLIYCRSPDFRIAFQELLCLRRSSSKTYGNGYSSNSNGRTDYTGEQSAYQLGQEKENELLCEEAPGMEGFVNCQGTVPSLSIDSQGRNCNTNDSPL
Sequence of Histamine H1 receptor (P31390 whole entry): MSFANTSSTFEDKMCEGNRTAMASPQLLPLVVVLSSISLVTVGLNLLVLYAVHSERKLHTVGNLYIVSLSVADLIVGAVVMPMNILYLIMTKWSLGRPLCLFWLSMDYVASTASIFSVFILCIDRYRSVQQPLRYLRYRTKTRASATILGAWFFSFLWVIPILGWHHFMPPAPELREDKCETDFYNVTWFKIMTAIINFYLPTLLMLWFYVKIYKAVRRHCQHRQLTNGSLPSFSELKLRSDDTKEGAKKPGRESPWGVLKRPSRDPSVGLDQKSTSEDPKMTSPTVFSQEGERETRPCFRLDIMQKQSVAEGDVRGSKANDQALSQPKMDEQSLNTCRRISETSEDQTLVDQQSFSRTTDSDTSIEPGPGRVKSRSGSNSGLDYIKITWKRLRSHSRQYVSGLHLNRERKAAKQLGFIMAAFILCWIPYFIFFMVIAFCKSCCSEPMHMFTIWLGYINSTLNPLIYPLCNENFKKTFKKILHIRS
Sequence of 5-hydroxytryptamine receptor 7 (P34969 whole entry): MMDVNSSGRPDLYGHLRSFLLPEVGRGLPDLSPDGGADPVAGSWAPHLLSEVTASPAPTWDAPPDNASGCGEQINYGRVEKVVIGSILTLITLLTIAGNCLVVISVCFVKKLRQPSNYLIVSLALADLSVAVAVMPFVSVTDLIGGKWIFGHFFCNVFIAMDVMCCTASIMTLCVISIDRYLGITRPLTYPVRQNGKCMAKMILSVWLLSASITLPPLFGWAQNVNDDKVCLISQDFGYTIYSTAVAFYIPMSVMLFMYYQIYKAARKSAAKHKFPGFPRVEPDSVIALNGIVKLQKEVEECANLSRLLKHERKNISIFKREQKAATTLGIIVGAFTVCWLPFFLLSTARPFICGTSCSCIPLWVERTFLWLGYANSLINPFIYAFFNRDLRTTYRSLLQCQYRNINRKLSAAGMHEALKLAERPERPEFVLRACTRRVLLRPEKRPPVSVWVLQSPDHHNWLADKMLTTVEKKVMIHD
Sequence of D(1A) dopamine receptor (P18901 whole entry): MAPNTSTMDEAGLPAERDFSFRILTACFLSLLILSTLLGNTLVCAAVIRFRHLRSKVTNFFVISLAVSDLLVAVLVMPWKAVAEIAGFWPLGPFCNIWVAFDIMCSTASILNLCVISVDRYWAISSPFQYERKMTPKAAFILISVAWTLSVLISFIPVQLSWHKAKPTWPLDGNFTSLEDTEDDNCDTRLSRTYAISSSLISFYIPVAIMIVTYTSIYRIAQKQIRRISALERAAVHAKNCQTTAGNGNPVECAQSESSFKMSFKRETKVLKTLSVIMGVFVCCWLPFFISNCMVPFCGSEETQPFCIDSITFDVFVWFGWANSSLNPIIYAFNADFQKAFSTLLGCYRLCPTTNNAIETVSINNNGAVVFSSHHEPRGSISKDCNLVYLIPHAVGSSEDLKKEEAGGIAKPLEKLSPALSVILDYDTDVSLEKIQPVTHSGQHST
Sequence of Gamma-aminobutyric acid receptor subunit alpha-1 (P62813 whole entry): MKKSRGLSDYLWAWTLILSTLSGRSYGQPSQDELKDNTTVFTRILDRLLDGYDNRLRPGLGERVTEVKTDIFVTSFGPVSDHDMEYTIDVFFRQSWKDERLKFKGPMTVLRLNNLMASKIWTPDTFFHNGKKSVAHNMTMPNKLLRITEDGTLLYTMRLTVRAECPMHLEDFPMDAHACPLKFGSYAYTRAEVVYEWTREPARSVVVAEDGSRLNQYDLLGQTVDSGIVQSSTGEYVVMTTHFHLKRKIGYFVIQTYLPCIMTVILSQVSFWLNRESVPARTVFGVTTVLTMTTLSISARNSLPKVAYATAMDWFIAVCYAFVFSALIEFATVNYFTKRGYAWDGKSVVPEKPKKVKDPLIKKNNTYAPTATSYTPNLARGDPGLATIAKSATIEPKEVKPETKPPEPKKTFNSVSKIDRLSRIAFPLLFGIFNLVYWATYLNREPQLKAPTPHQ
Sequence of 5-hydroxytryptamine receptor 2A (P28223 whole entry): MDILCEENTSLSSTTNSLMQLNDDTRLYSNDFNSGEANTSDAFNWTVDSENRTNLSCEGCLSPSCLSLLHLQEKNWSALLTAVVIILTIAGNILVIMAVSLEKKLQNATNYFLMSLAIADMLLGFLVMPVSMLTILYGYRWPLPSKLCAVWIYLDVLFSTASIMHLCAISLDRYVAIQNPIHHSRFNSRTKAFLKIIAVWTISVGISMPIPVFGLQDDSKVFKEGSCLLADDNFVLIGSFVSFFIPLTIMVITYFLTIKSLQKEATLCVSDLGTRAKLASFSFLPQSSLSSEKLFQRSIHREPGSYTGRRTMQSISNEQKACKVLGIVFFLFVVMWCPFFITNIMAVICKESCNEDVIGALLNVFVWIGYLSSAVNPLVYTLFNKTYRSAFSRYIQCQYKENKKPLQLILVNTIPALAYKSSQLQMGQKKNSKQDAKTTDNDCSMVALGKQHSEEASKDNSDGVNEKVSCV
Sequence of 5-hydroxytryptamine receptor 1D (P28221 whole entry): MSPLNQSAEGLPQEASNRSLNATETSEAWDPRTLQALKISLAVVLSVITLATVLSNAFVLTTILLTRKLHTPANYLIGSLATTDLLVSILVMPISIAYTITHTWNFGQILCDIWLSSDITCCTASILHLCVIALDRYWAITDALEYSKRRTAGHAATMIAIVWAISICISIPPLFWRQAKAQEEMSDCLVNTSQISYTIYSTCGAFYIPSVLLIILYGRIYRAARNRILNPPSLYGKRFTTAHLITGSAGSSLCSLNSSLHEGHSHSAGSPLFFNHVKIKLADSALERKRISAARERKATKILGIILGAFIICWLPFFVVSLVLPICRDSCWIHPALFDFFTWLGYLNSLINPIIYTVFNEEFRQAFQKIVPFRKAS

On to `CN(C)C1CCc2[nH]c3ccc(NC(=O)c4ccc(F)cc4)cc3c2C1` (centres undefined) [NSC_5311097], for which the Ki in assay [1] is > 10 µM; in [2], 3.5 µM; in [3], 3.69 µM; in assay [4], > 10 µM; in assay [5], 0.575 µM; on D(1A) dopamine receptor, > 10 µM. The Ki is 3.94 µM in assay [6]; > 10 µM in assay [7]; 4.85 µM in [8]; > 10 µM on D(2) dopamine receptor; > 10 µM on Histamine H1 receptor; 0.006 µM in [9]. The Ki in assay [10] stood at 1.69 µM; in [11], 5.06 µM.

What is called Ki is the dissociation constant of the complex between target and ligand, obtained from inhibition or displacement. A low value points to higher affinity.
